Key:
Vaccinia = assay type: cell-based
Cowpox = assay type: cell-based

Nc1ccn(C[C@@H](CO)OCP(=O)(O)O)c(=O)n1 [CDV]
PR CDV EC50 (Vaccinia): 4.9 µg/mL
PR CDV EC50 (Cowpox): 10.3 µg/mL
